Results from patent US20230390315A1, “COMPOSITIONS AND METHODS FOR TREATING ISCHEMIC CONDITIONS” (The Regents of the University of California, priority 2020, published 2023).

What was measured:
VEGFR2 [1] = test: VEGF/VEGFR2 expression, cell surface amount and VEGFR2 activation in BCECs; type: cell-based, bovine
Procedure: Cells were allowed to reach 80% confluency in 12-well plates. […] At various time points, plates were taken out of the incubator and kept on ice. Cell monolayers were first washed once with ice-cold PBS before lysis with 250 μl of Pierce RIPA buffer (ThermoFisher Scientific, Rockford, IL) or use 50 mM Tris-HCl (pH 7.6), 150 mM NaCl, 10% Glycerol, 1% NP-40 containing protease/Phosphatase inhibitor cocktail (100×) (Cell signaling, #5872). Lysates were collected and mixed with 4×Bolt LDS Sample Buffer (Novex, Carlsbad, CA) in the presence of Halt protease inhibitors and phosphatase inhibitor cocktail (ThermoFisher scientific, #NP0007). The samples were subjected to SDS-PAGE (Bolt 4-12% Bis-Tris Plus, Invitrogen) using Bolt MES SDS running buffer or NuPAGE 3-8% Tris-Acetate gel using Tris-Acetate SDS running buffer (Novex). HUVECs (passage 6-8) were plated in EBM-2 basal medium (Lonza) with 0.2% FBS. […] Equal amounts of protein lysates were analyzed by SDS-PAGE and blotted with the indicated antibodies. Proteins were transferred using Tris-Glycine buffer with 20% Methanol (Proteonomics grade) (Apex BioResearch Products). Membranes were first incubated with 5% milk in TBST, pH 7.6 (TEKnova, Hollister, CA), followed by blotting with primary and secondary antibodies. ECL anti-rabbit IgG, horseradish peroxidase linked whole antibody from donkey or sheep anti-mouse were obtained from GE Healthcare (UK limited). SuperSignal West Dura Extended Duration substrate was from ThermoFisher Scientific. In some cases, the same PVDF membranes were stripped by 8-min incubation in the Restore Plus Western Blot Stripping Buffer (ThermoFisher Scientific) to show total specific protein expression, followed by second stripping for β-actin expression. BCECs were plated in 10 cm cell culture dishes 3 days prior to the cell surface protein isolation. Cells were washed three times with Dulbecco's PBS with CaCl2 and MgCl2, followed by a 30 min incubation with EZ-Link Sulfo-NHS-SS-Biotin (Pierce, Rockford, IL, USA; 0.5 mg/ml in Dulbecco) on ice. […] For cell lysis 500 […]1 of lysis buffer (2% NP-40, 1% Triton X-100, 10% glycerol, 100 uM oxidized glutathione, EDTA free protease inhibitor tablet (Roche, Mannheim, Germany) in PBS was added to the cells. Lysed cell extracts were scraped off the plates and transferred to an Eppendorf tube followed by incubation on ice on a shaker for 30 mins. The cell extracts were incubated with 30 U of DNase (22° C. 50 mins, Roche, Mannheim, Germany) and centrifuged for 20 mins (20,800×g, at 4° C.) to pellet the insoluble material. The protein concentration of the supernatants was determined. Equal amounts of protein ( 2 mg) from each extract were used for cell surface protein isolation. […]

VEGFR2 [2] = test: Western blot of VEGFR2 protein mass in human ECs; type: cell-based; settings: hRMVEC, HUVEC and hDMVECs; 40 uM ManN
Procedure: Cells were allowed to reach 80% confluency in 12-well plates. […] At various time points, plates were taken out of the incubator and kept on ice. Cell monolayers were first washed once with ice-cold PBS before lysis with 250 μl of Pierce RIPA buffer (ThermoFisher Scientific, Rockford, IL) or use 50 mM Tris-HCl (pH 7.6), 150 mM NaCl, 10% Glycerol, 1% NP-40 containing protease/Phosphatase inhibitor cocktail (100×) (Cell signaling, #5872). Lysates were collected and mixed with 4×Bolt LDS Sample Buffer (Novex, Carlsbad, CA) in the presence of Halt protease inhibitors and phosphatase inhibitor cocktail (ThermoFisher scientific, #NP0007). The samples were subjected to SDS-PAGE (Bolt 4-12% Bis-Tris Plus, Invitrogen) using Bolt MES SDS running buffer or NuPAGE 3-8% Tris-Acetate gel using Tris-Acetate SDS running buffer (Novex). HUVECs (passage 6-8) were plated in EBM-2 basal medium (Lonza) with 0.2% FBS. […] Equal amounts of protein lysates were analyzed by SDS-PAGE and blotted with the indicated antibodies. Proteins were transferred using Tris-Glycine buffer with 20% Methanol (Proteonomics grade) (Apex BioResearch Products). Membranes were first incubated with 5% milk in TBST, pH 7.6 (TEKnova, Hollister, CA), followed by blotting with primary and secondary antibodies. […]

N[C@H](C=O)[C@@H](O)[C@H](O)[C@H](O)CO [ManN, 2-Amino-2-deoxy-D-mannose]
amount of VEGFR2 on cell surface (biotinylation) (VEGFR2 [1]): no changes in the amount of VEGFR2 on cell surface
transcription of VEGF, VEGFR2, GLUT1 & 4 and total VEGFR2 protein expression (VEGFR2 [1]; 4 hours (gene) or 24 hours (protein)): neither transcription of VEGF, VEGFR2 and GLUT1 & 4 nor total VEGFR2 protein expression was significantly changed
VEGFR2 phosphorylation in response to VEGF (VEGFR2 [1]; ManN pre-treated cells): decreased
ligand-independent VEGFR2 activation (VEGFR2 [1]; after ManN addition): No ligand-independent VEGFR2 activation occurred
change in VEGFR2 protein mass (VEGFR2 [2]): significant change in VEGFR2 protein mass
